Reference: patent US9006252B2, “Fused multicyclic compounds as protein kinase inhibitors” (National Health Research Institutes, priority 2008, dated 2015)
“And” between values parts separate entries of the source, which are not always exact repeats. Equal entries are not always repeated. Where two headings read alike, the source gives them in different places.

Legend:
Aurora A = target: T1, Aurora A (Homo sapiens, UniProt O14965); assay: Aurora Kinase A luminescent kinase assay (Kinase-Glo); type: biochemical; conditions: IC50 values (concentration of a test compound at which activity of 50% of Aurora A is inhibited), GST-tAurora A (123-401aa) fusion protein
T1 construct: GST-tAurora A (123-401aa) fusion protein obtained above; made in house; host or cells: Sf9 insect cells (baculovirus, pBacPAK8)
T1 sequence (O14965 123-401): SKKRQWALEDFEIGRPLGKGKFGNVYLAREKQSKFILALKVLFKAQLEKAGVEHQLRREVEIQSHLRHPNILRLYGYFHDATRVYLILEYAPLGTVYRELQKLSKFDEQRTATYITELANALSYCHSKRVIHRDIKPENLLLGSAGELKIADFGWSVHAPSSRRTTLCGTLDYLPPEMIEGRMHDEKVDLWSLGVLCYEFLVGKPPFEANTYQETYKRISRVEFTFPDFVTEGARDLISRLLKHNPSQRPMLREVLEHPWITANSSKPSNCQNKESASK
Method: The Aurora A catalytic domain with an N-terminal GST tag was constructed in pBacPAK8 plasmid and expressed in sf9 cells. […] To concentrate GST-tAurora A, buffer was replaced with Tris buffer (100 mM Tris (pH 7.5), 300 mM NaCl, 1 mM EDTA, 4 mM DTT) using Amicon ultra-15 (MWCO:30K, Millipore) to 2.4 mg/ml. After the addition of equal volume of glycerol and 0.04% Triton X-100, the proteins were stored aliquoted at −80° C.
Briefly, a test compound, enzyme, substrate-tetra(LRRWSLG), DTT and ATP were dissolved in Aur buffer (50 mM Tris-HCl pH 7.4, 10 mM NaCl, 10 mM MgCl2, and 100 μg/ml BSA) individually before the assay. […] 5 μM ATP (5 μl), 1 mM DTT (5 μl) and 0.1 mM tetra(LRRWSLG) peptide substrate (5 μl) were added into the reactions of test compounds and GST-tAurora A. The reactions were incubated at 37° C. for 90 min. 50 μl of Kinase-Glo Plus Reagent (V3771, Promega) was added into the reactions, followed by the incubation at 25° C. for 20 min.

HCT-116 cells = assay: HCT-116 cell viability, MTS assay; type: cell-based; conditions: Homo sapiens, HCT-116, 96 h, read-out: IC50 values, HCT-116 cell viability
Method: HCT-116 cell viability was examined by the MTS assay (Promega, Madison, Wis., USA). 2000 HCT-116 cells in 100 μL McCoy's 5a medium were seeded in each well of a 96-well plate. After 96-h incubation with a test compound, the cells were incubated with 20 μL of a MTS/PMS mixture (MTS/PMS ratio: 20:1) for 2 h at 37° C. in a humidified incubator with 5% CO2 to allow viable cells to convert the tetrazolium salt (MTS) into formazan. The amount/concentration of formazan, which indicates the number of live cells, was determined by measuring the absorbance at 490 nm using a PerkinElmer Victor2 plate reader (PerkinElmer, Shelton, Conn., USA).

COc1cc2ncnc(NCCc3ccc(NC(=O)Nc4ccccc4)cc3)c2cc1OC [Compound 1, 1-(4-(2-(6,7-dimethoxyquinazolin-4-ylamino)ethyl)phenyl)-3-phenylurea]
IC50 (Aurora A): 1 to 50 nM and < 1000 nM | IC50 (HCT-116 cells): < 100 nM

COc1cc2ncnc(NCCc3ccc(NC(=O)Nc4cccnc4)cc3)c2cc1OC [Compound 2, 1-{4-[2-(6,7-Dimethoxy-quinazolin-4-ylamino)-ethyl]-phenyl}-3-pyridin-3-yl-urea]
IC50 (Aurora A): < 1000 nM and 51 to 450 nM | IC50 (HCT-116 cells; 96-h incubation, MTS): 101 to 850 nM

COc1cc2ncnc(NCCc3ccc(NC(=O)Nc4cccc(F)c4)cc3)c2cc1OC [Compound 5, 1-{4-[2-(6,7-Dimethoxy-quinazolin-4-ylamino)-ethyl]-phenyl}-3-(3-fluoro-phenyl)-urea]
IC50 (Aurora A): < 1000 nM and 51 to 450 nM | IC50 (HCT-116 cells; 96-h incubation, MTS): < 100 nM

O=C(Nc1ccccc1)Nc1ccc(CCNc2ncnc3cc(OCCCCl)ccc23)cc1 [Compound 6, 1-(4-{2-[7-(3-Chloro-propoxy)-quinazolin-4-ylamino]-ethyl}-phenyl)-3-phenyl-urea]
IC50 (Aurora A): < 1000 nM and 51 to 450 nM

O=C(Nc1ccccc1)Nc1ccc(CCNc2ncnc3oc(-c4ccccc4)nc23)cc1 [Compound 7, 1-Phenyl-3-{4-[2-(2-phenyl-oxazolo[5,4-d]pyrimidin-7-ylamino)-ethyl]-phenyl}-urea]
IC50 (Aurora A): < 1000 nM and 51 to 450 nM | IC50 (HCT-116 cells; 96-h incubation, MTS): 101 to 850 nM

CCN(CCO)CCCOc1ccc2c(NCCc3ccc(NC(=O)Nc4ccccc4)cc3)ncnc2c1 [Compound 20]
IC50 (Aurora A): < 1000 nM and 1 to 50 nM | IC50 (HCT-116 cells; 96-h incubation, MTS): < 100 nM

CCN(CCO)CCCOc1ccc2c(NCCc3ccc(NC(=O)Nc4cccc(F)c4)cc3)ncnc2c1 [Compound 22]
IC50 (Aurora A): < 1000 nM and 1 to 50 nM | IC50 (HCT-116 cells; 96-h incubation, MTS): 101 to 850 nM

COc1cc2ncnc(NCCc3ncc(NC(=O)Nc4ccccc4)s3)c2cc1OC [Compound 47]
IC50 (Aurora A): < 1000 nM and 1 to 50 nM | IC50 (HCT-116 cells; 96-h incubation, MTS): 101 to 850 nM

COc1cc2ncnc(NCCc3cnc(NC(=O)Nc4cccc(F)c4)s3)c2cc1OC [Compound 56]
IC50 (Aurora A): < 1000 nM and 51 to 450 nM | IC50 (HCT-116 cells; 96-h incubation, MTS): 101 to 850 nM

CN(C)Cc1ccccc1NC(=O)Nc1ccc(CCNc2ncnc3oc(-c4ccccc4)nc23)cc1 [Compound 72]
IC50 (Aurora A): < 1000 nM and 51 to 450 nM

O=C(Nc1ccccc1)Nc1ncc(CCNc2ncnc3oc(-c4ccccc4)nc23)s1 [Compound 81]
IC50 (Aurora A): < 1000 nM and 51 to 450 nM

COc1cc2ncc(C#N)c(NCCc3ccc(NC(=O)Nc4ccccc4)cc3)c2cc1OC [Compound 140]
IC50 (Aurora A): < 1000 nM and 51 to 450 nM

N#Cc1cnc2ccsc2c1NCCc1cnc(NC(=O)Nc2cccc(Cl)c2)s1 [Compound 190, 1-(3-chlorophenyl)-3-(5-(2-(6-cyanothieno[3,2-b]pyridin-7-ylamino)ethyl)thiazol-2-yl)urea]
IC50 (Aurora A): < 1000 nM and 51 to 450 nM

COc1cc2ncnc(NCCc3ccc(NC(=O)Nc4ccccc4)cc3)c2cc1OC [Compound 201]
IC50 (Aurora A): 1 to 50 nM and < 1000 nM

CN(C)CCCOc1ccc2c(NCCc3ccc(NC(=O)Nc4ccccc4)cc3)ncnc2c1 [Compound 202]
IC50 (Aurora A): 51 to 450 nM and < 1000 nM

CCN(CCO)CCCOc1ccc2c(NCCc3ccc(NC(=O)Nc4ccccc4)cc3)ncnc2c1 [Compound 203]
IC50 (Aurora A): 51 to 450 nM and < 1000 nM

COc1cc2ncnc(NCCc3ccc(NC(=O)Nc4cccc(C(F)(F)F)c4)cc3)c2cc1OC [Compound 204]
IC50 (Aurora A): 1 to 50 nM and < 1000 nM | IC50 (HCT-116 cells; 96-h incubation, MTS): 101 to 850 nM

COc1cccc(NC(=O)Nc2ccc(CCNc3ncnc4cc(OC)c(OC)cc34)cc2)c1 [Compound 205]
IC50 (Aurora A): < 1000 nM and 51 to 450 nM | IC50 (HCT-116 cells; 96-h incubation, MTS): 101 to 850 nM

COc1ccc(-c2nc3c(NCCc4ccc(NC(=O)Nc5ccccc5)cc4)ncnc3o2)cc1 [Compound 206]
IC50 (Aurora A): < 1000 nM and 51 to 450 nM | IC50 (HCT-116 cells; 96-h incubation, MTS): 101 to 850 nM

CN(C)CCCOc1ccc2c(NCCc3ccc(NC(=O)Nc4cccc(F)c4)cc3)ncnc2c1 [Compound 207]
IC50 (Aurora A): < 1000 nM and 51 to 450 nM | IC50 (HCT-116 cells; 96-h incubation, MTS): 101 to 850 nM

CN(C)CCCOc1ccc2c(NCCc3ccc(NC(=O)Nc4cccc(F)c4)cc3)ncnc2c1 [Compound 208]
IC50 (Aurora A): < 1000 nM and 51 to 450 nM

CCN(CCO)CCCOc1ccc2c(NCCc3ccc(NC(=O)Nc4cccc(F)c4)cc3)ncnc2c1 [Compound 209]
IC50 (Aurora A): 1 to 50 nM and < 1000 nM

COc1cc2ncnc(NCCc3ccc(NC(=O)Nc4ccc(F)cc4)cc3)c2cc1OC [Compound 210]
IC50 (Aurora A): 1 to 50 nM and < 1000 nM | IC50 (HCT-116 cells; 96-h incubation, MTS): < 100 nM

COc1cc2ncnc(NCCc3ccc(NC(=O)Nc4ccc(F)cc4)cc3)c2cc1OC [Compound 211]
IC50 (Aurora A): 1 to 50 nM and < 1000 nM

COc1ccc2c(NCCc3ccc(NC(=O)Nc4ccccc4)cc3)c(C#N)cnc2c1 [Compound 212]
IC50 (Aurora A): 51 to 450 nM and < 1000 nM | IC50 (HCT-116 cells; 96-h incubation, MTS): 101 to 850 nM

COc1ccc2c(NCCc3ccc(NC(=O)Nc4cccc(Cl)c4)cc3)c(C#N)cnc2c1 [Compound 213]
IC50 (HCT-116 cells; 96-h incubation, MTS): 101 to 850 nM

O=C(Nc1ccccc1)Nc1ccc(CCNc2ncnc3oc(-c4ccc(O)cc4)nc23)cc1 [Compound 220]
IC50 (Aurora A): 1 to 50 nM and < 1000 nM | IC50 (HCT-116 cells; 96-h incubation, MTS): 101 to 850 nM

O=C(Nc1ccccc1)Nc1ccc(CCNc2ncnc3oc(-c4cccnc4)nc23)cc1 [Compound 222]
IC50 (Aurora A): 51 to 450 nM and < 1000 nM | IC50 (HCT-116 cells; 96-h incubation, MTS): 101 to 850 nM

COc1cc2ncnc(NCCc3ccc(Nc4nc5ccccc5[nH]4)cc3)c2cc1OC [Compound 224]
IC50 (Aurora A): 1 to 50 nM and < 1000 nM | IC50 (HCT-116 cells; 96-h incubation, MTS): 101 to 850 nM

COc1cc2ncc(C#N)c(NCCc3ccc(NC(=O)Nc4cccc(F)c4)cc3)c2cc1OC [Compound 225]
IC50 (Aurora A): 51 to 450 nM and < 1000 nM | IC50 (HCT-116 cells; 96-h incubation, MTS): 101 to 850 nM

COc1cc2ncc(C#N)c(NCCc3ccc(NC(=O)NC4CC4)cc3)c2cc1OC [Compound 226]
IC50 (Aurora A): 51 to 450 nM and < 1000 nM

COc1cc2ncc(C#N)c(NCCc3cnc(NC(=O)Nc4ccccc4)s3)c2cc1OC [Compound 227]
IC50 (Aurora A): 51 to 450 nM and < 1000 nM

COc1cc2ncnc(NCCc3cnc(NC(=O)Nc4cccc(Cl)c4)s3)c2cc1OC [Compound 228]
IC50 (Aurora A): 1 to 50 nM and < 1000 nM | IC50 (HCT-116 cells; 96-h incubation, MTS): < 100 nM

N#Cc1cnc2cc(O)ccc2c1NCCc1ccc(NC(=O)Nc2ccccc2)cc1 [Compound 229]
IC50 (HCT-116 cells; 96-h incubation, MTS): 101 to 850 nM

COc1cc2ncnc(NCCc3ccc(NC(=O)NC4CC4)cc3)c2cc1OC [Compound 230]
IC50 (Aurora A): < 1000 nM

COc1ccc2ncc(C#N)c(NCCc3ccc(NC(=O)Nc4ccccc4)cc3)c2c1 [Compound 231]
IC50 (Aurora A): 51 to 450 nM and < 1000 nM | IC50 (HCT-116 cells; 96-h incubation, MTS): 101 to 850 nM

COc1cc2ncnc(OCCc3ccc(NC(=O)Nc4ccccc4)cc3)c2cc1OC [Compound 232]
IC50 (Aurora A): 1 to 50 nM and < 1000 nM | IC50 (HCT-116 cells; 96-h incubation, MTS): 101 to 850 nM

CN(C)c1ccc2c(NCCc3ccc(NC(=O)Nc4ccccc4)cc3)ncnc2c1 [Compound 233]
IC50 (Aurora A): 51 to 450 nM and < 1000 nM | IC50 (HCT-116 cells; 96-h incubation, MTS): < 100 nM

O=C(Nc1ccccc1)Nc1ccc(CCNc2ncnc3oc(-c4ccncc4)nc23)cc1 [Compound 235]
IC50 (Aurora A): 1 to 50 nM and < 1000 nM

O=C(Nc1ccccc1)Nc1ccc(CCNc2ncnc3oc(-c4ccncc4)nc23)cc1 [Compound 236]
IC50 (Aurora A): 51 to 450 nM and < 1000 nM | IC50 (HCT-116 cells; 96-h incubation, MTS): 101 to 850 nM

O=C(Nc1ccccc1)Nc1ccc(CCNc2ncnc3oc(-c4ccccn4)nc23)cc1 [Compound 237]
IC50 (Aurora A): 1 to 50 nM and < 1000 nM | IC50 (HCT-116 cells; 96-h incubation, MTS): 101 to 850 nM

COc1cc2ncnc(N(C)CCc3ccc(NC(=O)Nc4ccccc4)cc3)c2cc1OC [Compound 240]
IC50 (Aurora A): 51 to 450 nM and < 1000 nM | IC50 (HCT-116 cells; 96-h incubation, MTS): < 100 nM

O=C(Nc1cccc(F)c1)Nc1ncc(CCNc2ncnc3oc(-c4ccccc4)nc23)s1 [Compound 241]
IC50 (Aurora A): 51 to 450 nM and < 1000 nM

O=C(Nc1cccc(Cl)c1)Nc1ncc(CCNc2ncnc3oc(-c4ccccc4)nc23)s1 [Compound 242]
IC50 (Aurora A): 51 to 450 nM and < 1000 nM

COc1cc2ncnc(NCCc3ccc(NC(=O)Nc4cc(F)cc(F)c4)cc3)c2cc1OC [Compound 244]
IC50 (Aurora A): 1 to 50 nM and < 1000 nM | IC50 (HCT-116 cells; 96-h incubation, MTS): < 100 nM

COc1cc2ncnc(NCCc3ccc(NC(=O)Nc4cc(F)cc(F)c4)cc3)c2cc1OC [Compound 245]
IC50 (Aurora A): 1 to 50 nM and < 1000 nM

COc1cc2ncnc(NCCc3ccc(NC(=O)Nc4ccccc4F)cc3)c2cc1OC [Compound 246]
IC50 (Aurora A): 51 to 450 nM and < 1000 nM | IC50 (HCT-116 cells; 96-h incubation, MTS): 101 to 850 nM

O=C(Nc1ccccc1)Nc1ccc(CCNc2ncnc3ccccc23)cc1 [Compound 249]
IC50 (Aurora A): 1 to 50 nM and < 1000 nM
